The record followed here is US20160045505A1, “COMPOUNDS AND COMPOSITIONS FOR THE TREATMENT OF PARASITIC DISEASES” (NOVARTIS AG, priority 2013, published 2016).

Test [1] has as its system Trypanosoma cruzi amastigotes (Tulahuen strain expressing Lac-Z) cultured in 3T3 fibroblast cells. The test can be described thus: microbe, parasite or virus in culture. Type of test: cell-based. As to conditions: Trypanosoma cruzi, TULAHUEN
The test system of test [2] is Leishmania donovani axenic amastigote parasites. The test can be described thus: Leishmania donovani axenic amastigote proliferation assay (Cell TiterGlo luminescence, 2 day incubation). As to conditions: Leishmania donovani, read-out: L. donovani amastigotes EC50. In kind it is cell-based.
Test [3] has as its system L. donovani HU3 strain in mouse peritoneal macrophages. Kind of test: Assay for proliferation of Leishmania parasites in infected mouse peritoneal macrophages (SybrGreen staining, high-content imaging, 5 days). In kind it is cell-based, Leishmania donovani. As to conditions: Leishmania donovani, Peritoneal macrophage, L. donovani in mouse peritoneal macrophages, read-out: L. donovani Macrophage EC50.

Where [4] appears, read: Fibroblast, T. cruzi amastigotes in 3T3 fibroblast cells, inhibition of proliferation, read-out: T cruzi EC50.
Setting [5] is: axenic amastigotes, inhibition of proliferation.

Broadly, the pEC50 is the EC50 on a negative log10 scale, so that one unit is a factor of ten.

pEC50: −log10 of the molar value. Where two headings read alike, the source gives them in different places.

Regarding `CC(C)OC(=O)Nc1cnc2nc(-c3cc(NC(=O)c4ccc(F)o4)ccc3Cl)cn2c1` [Compound 1, Propan-2-yl N-{2-[2-chloro-5-(5-fluorofuran-2-amido)phenyl]imidazo[1,2-a]pyrimidin-6-yl}carbamate], the pEC50 in test [1] (setting [4]) is 7.52; in test [1] (NIH3T3, 144 h, T. cruzi amastigotes in 3T3 cells, 6 day incubation, read-out: EC50) it was 7.52; in test [2] (setting [5]) it was 7.06; in test [3] (inhibition of proliferation), 6.61.

On to `CC(C)OC(=O)Nc1cnc2nc(-c3cc(NC(=O)N4CCCC4)ccc3Cl)cn2c1` [Compound 2, propan-2-yl N-(2-{2-chloro-5-[(pyrrolidin-1-yl)carbonylamino]phenyl}imidazo[1,2-a]pyrimidin-6-yl)carbamate], for which the pEC50 in test [1] (setting [4]) is 6.61; in test [2] (setting [5]), 7.02; in test [3] (inhibition of proliferation) it was 6.57.

Consider `CC(C)OC(=O)Nc1cnc2nc(-c3cccc(NC(=O)c4ccc(F)o4)c3)cn2c1` [Compound 3, propan-2-yl N-{2-[3-(5-fluorofuran-2-amido)phenyl]imidazo[1,2-a]pyrimidin-6-yl}carbamate], for which the pEC50 is 6.29 in test [1] (setting [4]), 6.62 in test [2] (setting [5]) and 6.37 in test [3] (inhibition of proliferation).

Consider `CC(C)OC(=O)Nc1cnc2nc(-c3cc(NC(=O)c4ccc(C#N)o4)ccc3Cl)cn2c1` [Compound 48], for which the pEC50 was 6.80 in test [1] (setting [4]), 7.09 in test [2] (setting [5]) and 6.86 in test [3] (inhibition of proliferation).

For `CC(C)OC(=O)Nc1cnc2nc(-c3cc(NC(=O)c4cnc(Cl)s4)ccc3Cl)cn2c1` [Compound 51], the pEC50 in test [1] (setting [4]) was 5.83; in test [2] (setting [5]) it was 5.42; in test [3] (inhibition of proliferation), 5.03.

With `COC(C)C(=O)Nc1ccc(Cl)c(-c2cn3cc(NC(=O)OC(C)C)cnc3n2)c1` (stereo not shown) [Compound 54], the pEC50 was 5.89 in test [1] (setting [4]), 5.71 in test [2] (setting [5]) and 4.84 in test [3] (inhibition of proliferation).

`CC(C)OC(=O)Nc1cnc2nc(-c3cc(NC(=O)C4CCCO4)ccc3Cl)cn2c1` (stereo not shown) [Compound 55]: the pEC50 in test [1] (setting [4]) was 5.38; in test [2] (setting [5]), 5.14; in test [3] (inhibition of proliferation), 4.57.

As to `CC(=O)OC(C)C(=O)Nc1ccc(Cl)c(-c2cn3cc(NC(=O)OC(C)C)cnc3n2)c1` (stereo not shown) [Compound 56], the negative-log EC50 (pEC50) in test [1] (setting [4]) is 4.94; in test [2] (setting [5]) it was 4.72; in test [3] (inhibition of proliferation), less than 4.30.

With `CC(C)OC(=O)Nc1cnc2nc(-c3cc(NC(=O)C4CCCCO4)ccc3Cl)cn2c1` (stereo not shown) [Compound 57], the pEC50 in test [1] (setting [4]) is 6.39; in test [2] (setting [5]), 6.06; in test [3] (inhibition of proliferation), 5.53.

As for `CC(C)OC(=O)Nc1cnc2nc(-c3cc(NC(=O)C(C)OCC(F)(F)F)ccc3Cl)cn2c1` (stereo not shown) [Compound 58], the figures for the pEC50 in test [1] (setting [4]), in test [2] (setting [5]) and in test [3] (inhibition of proliferation) were 5.34, 4.85 and 4.98, respectively.

As to `Cc1nc(C(=O)Nc2ccc(Cl)c(-c3cn4cc(NC(=O)OC(C)C)cnc4n3)c2)c[nH]1` [Compound 59], the pEC50 was less than 4.70 in test [1] (setting [4]), less than 4.60 in test [2] (setting [5]) and less than 4.30 in test [3] (inhibition of proliferation).

`CC(C)OC(=O)Nc1cnc2nc(-c3cc(NC(=O)c4ccc(F)o4)ccc3F)cn2c1` [Compound 63]: the negative logarithm of the EC50 (pEC50) in test [1] (setting [4]) is 6.91; in test [2] (setting [5]), 7.05; in test [3] (inhibition of proliferation), 6.65.

For the compound `CC(C)OC(=O)Nc1cnc2nc(-c3cc(NC(=O)c4ccc(F)s4)ccc3F)cn2c1` [Compound 67], the pEC50 in test [1] (setting [4]) is 6.87; in test [2] (setting [5]) it was 6.17; in test [3] (inhibition of proliferation), 5.95.

On to `Cc1cc(C(=O)Nc2ccc(F)c(-c3cn4cc(NC(=O)OC(C)C)cnc4n3)c2)n[nH]1` [Compound 77], for which the pEC50 in test [1] (setting [4]) was less than 4.70; in test [2] (setting [5]), 5.03; in test [3] (inhibition of proliferation) it was less than 4.30.

Take `CC(C)OC(=O)Nc1cnc2nc(-c3cc(NC(=O)[C@@H](N)c4ccccc4)ccc3F)cn2c1` [Compound 84]: the figures for the pEC50 in test [1] (setting [4]), in test [2] (setting [5]) and in test [3] (inhibition of proliferation) were 5.06, less than 4.60 and 5.00, respectively.

For `CC(C)OC(=O)Nc1cnc2nc(-c3cc(NC(=O)c4ncc[nH]4)ccc3F)cn2c1` [Compound 92], the pEC50 in test [1] (setting [4]) was less than 4.70; in test [2] (setting [5]) it was less than 4.60; in test [3] (inhibition of proliferation), less than 4.54.

Regarding `CC(C)OC(=O)Nc1cnc2nc(-c3cc(NC(=O)c4cnc(C5CC5)o4)ccc3F)cn2c1` [Compound 108], the pEC50 in test [1] (setting [4]) is 5.92; in test [2] (setting [5]), 6.11; in test [3] (inhibition of proliferation), 5.62.

With `Cc1cnoc1C(=O)Nc1ccc(F)c(-c2cn3cc(NC(=O)OC(C)C)cnc3n2)c1` [Compound 111], the pEC50 was less than 4.70 in test [1] (setting [4]), less than 4.60 in test [2] (setting [5]) and less than 4.30 in test [3] (inhibition of proliferation).

On to `Cc1nc(C)c(C(=O)Nc2ccc(F)c(-c3cn4cc(NC(=O)C5CCCCO5)cnc4n3)c2)o1` (stereo not shown) [Compound 151], for which the pEC50 in test [1] (setting [4]) was 6.23; in test [2] (setting [5]), 6.87; in test [3] (inhibition of proliferation), 6.37.

For the compound `Cc1nc(C)c(C(=O)Nc2ccc(F)c(-c3cn4cc(NC(=O)c5ccc(F)cn5)cnc4n3)c2)o1` [Compound 187], the results for the pEC50 in test [1] (setting [4]), in test [2] (setting [5]) and in test [3] (inhibition of proliferation) were 6.85, 7.51 and less than 4.30, respectively.

As to `O=C(Nc1ccc(F)c(-c2cn3cc(Nc4ncccc4C(F)(F)F)cnc3n2)c1)N1CCCC1` [Compound 191], the pEC50 in test [1] (setting [4]) was 7.48; in test [2] (setting [5]) it was 7.55; in test [3] (inhibition of proliferation) it was 6.84.

Consider `CC(C)OC(=O)Nc1cnc2nc(-c3cc(NC(=O)N4CCN(C)CC4)ccc3Cl)cn2c1` [Compound 218], for which the pEC50 in test [1] (setting [4]) was less than 4.70; in test [2] (setting [5]), less than 4.60; in test [3] (inhibition of proliferation), 4.50.

`CNC(=O)Nc1ccc(F)c(-c2cn3cc(NC(=O)OC(C)C)cnc3n2)c1` [Compound 220]: the pEC50 in test [1] (setting [4]) was 5.86; in test [2] (setting [5]), 6.22; in test [3] (inhibition of proliferation) it was 5.30.

As for `CC(C)OC(=O)Nc1cnc2nc(-c3cc(NC(=O)N4CCC[C@H]4C(N)=O)ccc3Cl)cn2c1` [Compound 262], the pEC50 is less than 4.70 in test [1] (setting [4]), less than 4.60 in test [2] (setting [5]) and less than 4.30 in test [3] (inhibition of proliferation).

`CC(C)OC(=O)Nc1cnc2nc(-c3cc(NC(=O)N4CCC(NC(=O)OC(C)(C)C)C4)ccc3Cl)cn2c1` (stereo not shown) [Compound 268]: the pEC50 in test [1] (setting [4]) was 4.97; in test [2] (setting [5]), less than 4.60; in test [3] (inhibition of proliferation) it was 4.84.

`CC(C)OC(=O)Nc1cnc2nc(-c3cc(NC(=O)N4CCCC4C)ccc3Cl)cn2c1` (stereo not shown) [Compound 272]: the values for the pEC50 in test [1] (setting [4]), in test [2] (setting [5]) and in test [3] (inhibition of proliferation) were 5.89, 5.77 and 5.47, respectively.

Take `CC(C)OC(=O)Nc1cnc2nc(-c3cc(NC(=O)N4CCC(N5CCOCC5)C4)ccc3Cl)cn2c1` (stereo not shown) [Compound 273]: the pEC50 was less than 4.70 in test [1] (setting [4]), less than 4.60 in test [2] (setting [5]) and less than 4.30 in test [3] (inhibition of proliferation).

Turning to `CC(C)NC(=O)Nc1ccc(Cl)c(-c2cn3cc(NC(=O)OC(C)C)cnc3n2)c1` [Compound 277], the figures for the pEC50 in test [1] (setting [4]), in test [2] (setting [5]) and in test [3] (inhibition of proliferation) were 5.41, 5.16 and 4.97, respectively.

As to `CC(C)OC(=O)Nc1cnc2nc(-c3cc(NC(=O)N4CCC4)ccc3Cl)cn2c1` [Compound 278], the pEC50 in test [1] (setting [4]) is 5.96; in test [2] (setting [5]), 6.75; in test [3] (inhibition of proliferation) it was 5.97.

Take `CC(C)OC(=O)Nc1cnc2nc(-c3cc(NC(=O)N4CC(=O)C4)ccc3Cl)cn2c1` [Compound 279]: the pEC50 was less than 4.76 in test [1] (setting [4]), 5.61 in test [2] (setting [5]) and 5.02 in test [3] (inhibition of proliferation).

As for `CC(C)OC(=O)Nc1cnc2nc(-c3cc(NC(=O)N4CCC(C)(C(=O)O)C4)ccc3Cl)cn2c1` (stereo not shown) [Compound 280], the pEC50 in test [1] (setting [4]) was less than 4.70; in test [2] (setting [5]), less than 4.60; in test [3] (inhibition of proliferation), less than 4.38.

As to `CC(C)OC(=O)Nc1cnc2nc(-c3cc(NC(=O)N4CCC(=O)C4)ccc3Cl)cn2c1` [Compound 281], the figures for the pEC50 in test [1] (setting [4]), in test [2] (setting [5]) and in test [3] (inhibition of proliferation) were less than 4.70, 5.06 and less than 4.43, respectively.

For `CC(C)OC(=O)Nc1cnc2nc(-c3cc(NC(=O)N4CCCC4(C)C)ccc3Cl)cn2c1` [Compound 282], the pEC50 in test [1] (setting [4]) is 5.13; in test [2] (setting [5]), less than 4.60; in test [3] (inhibition of proliferation), 5.00.

Consider `CC(C)OC(=O)Nc1cnc2nc(-c3cc(NC(=O)N4CC(F)C4)ccc3Cl)cn2c1` [Compound 283], for which the pEC50 was 5.88 in test [1] (setting [4]), 6.61 in test [2] (setting [5]) and 6.14 in test [3] (inhibition of proliferation).

For `COC1CC(NC(=O)Nc2ccc(Cl)c(-c3cn4cc(NC(=O)OC(C)C)cnc4n3)c2)C1` (stereo not shown) [Compound 284], the pEC50 in test [1] (setting [4]) is 4.89; in test [2] (setting [5]), less than 4.60; in test [3] (inhibition of proliferation), 4.77.

In the case of `CC(C)OC(=O)Nc1cnc2nc(-c3cc(NC(=O)NC4CC4)ccc3Cl)cn2c1` [Compound 285], the pEC50 is 5.30 in test [1] (setting [4]), 4.93 in test [2] (setting [5]) and 4.79 in test [3] (inhibition of proliferation).

Regarding `COC(=O)CN1CCC(c2cnc3nc(-c4cc(NC(=O)c5oc(C)nc5C)ccc4F)cn3c2)CC1` [Compound 539, methyl 2-(4-(2-(5-(2,4-dimethyloxazole-5-carboxamido)-2-fluorophenyl)imidazo[1,2-a]pyrimidin-6-yl)piperidin-1-yl)acetate], the pEC50 is 6.42 in test [1] (Fibroblast, T. cruzi amastigotes in 3T3 fibroblast cells, read-out: T cruzi EC50) and 6.01 in test [2] (L. donovani axenic amastigotes).

`Cc1nc(C)c(C(=O)Nc2ccc(F)c(-c3cn4cc(C(C)N5CCOCC5)cnc4n3)c2)o1` (stereo not shown) [Compound 618, N-(4-fluoro-3-(6-(1-morpholinoethyl)imidazo[1,2-a]pyrimidin-2-yl)phenyl)-2,4-dimethyloxazole-5-carboxamide]: the pEC50 in test [2] (L. donovani axenic amastigotes) is 6.04; in test [3], 6.16.

Regarding `Cc1nc(C)c(C(=O)Nc2ccc(F)c(-c3cn4cc(C(C)N(C)C)cnc4n3)c2)o1` (stereo not shown) [Compound 619], the figures for the negative logarithm of the EC50 (pEC50) in test [2] (L. donovani axenic amastigotes) and in test [3] were 5.20 and 6.03, respectively.
